Data taken from patent publication US10654792B2, “Carboxylic acid ester prodrug inhibitors of MEK” (DUQUESNE UNIVERSITY OF THE HOLY GHOST, priority 2012, dated 2020).

Experiments:
MEK1/2 = test: Western blot, cellular pERK1/2 decrease after EGF stimulation; assay type: cell-based; conditions: MDA-MB-231 cells, compound 10 μM pretreatment 30 min, then EGF 50 ng/mL 15 min
Method: (§1) Western Blot Analysis of Potential MEK-5 Inhibitors
(§2) The MDA-MB-231 triple negative breast cancer cell line was pretreated with compounds (10 μM) for 30 min followed by stimulation with epidermal growth factor (EGF, 50 ng/mL) for 15 min. Vehicle-treated cells were pretreated with DMSO for 30 min prior to EGF stimulation for 15 min. Protein visualization and quantification analysis was performed using LI-COR Odyssey Imager. *P<0.05 vs. Vehicle, one-way ANOVA followed by Tukey-Kramer test (n=3)

MEK5 = target: T1, MEK5 (Homo sapiens, UniProt Q13163); test: Western blot, cellular pERK5 decrease after EGF stimulation; assay type: cell-based; conditions: MDA-MB-231 cells, compound 10 μM pretreatment 30 min, then EGF 50 ng/mL 15 min
T1 construct: The MDA-MB-231 triple negative breast cancer cell line was pretreated with compounds; endogenous in cells; host or cells: MDA-MB-231
T1 sequence (Q13163 1-448): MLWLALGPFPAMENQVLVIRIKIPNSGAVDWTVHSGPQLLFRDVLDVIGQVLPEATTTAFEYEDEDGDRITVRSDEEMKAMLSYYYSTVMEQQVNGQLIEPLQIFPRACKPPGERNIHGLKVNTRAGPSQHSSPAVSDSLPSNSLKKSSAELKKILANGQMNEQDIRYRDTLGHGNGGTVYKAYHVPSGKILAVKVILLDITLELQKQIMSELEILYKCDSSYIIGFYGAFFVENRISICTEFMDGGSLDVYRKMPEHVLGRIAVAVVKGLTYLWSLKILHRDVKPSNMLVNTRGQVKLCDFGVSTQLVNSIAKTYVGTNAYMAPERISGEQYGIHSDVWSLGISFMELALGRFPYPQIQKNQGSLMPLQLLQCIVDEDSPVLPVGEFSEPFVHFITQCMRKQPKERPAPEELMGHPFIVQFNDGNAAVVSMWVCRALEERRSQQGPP
Method: as §1, §2

| SMILES | cellular pERK5 decrease (%) (MEK5) | cellular pERK1/2 decrease (%) (MEK1/2) |
| --- | --- | --- |
| COC(=O)c1ccc(F)c(F)c1Nc1ccc(I)cc1F [SC-1-72 Ester] | 20.1% | 98.5% |
| O=C(O)c1ccc(F)c(F)c1Nc1ccc(I)cc1F [SC-1-148, 3,4-Difluoro-2-((2-fluoro-4-iodophenyl)amino)benzoic Acid] | 20.1% | 98.5% |
| CN[C@@H]1C[C@H]2O[C@@](C)([C@@H]1OC)n1c3ccccc3c3c4c(c5c6ccccc6n2c5c31)C(=O)NC4 [staurosporine, reference compound] | – | 98.93% |

The next lines start with results.

| cellular pERK5 decrease (%) (MEK5) | SMILES | cellular pERK1/2 decrease (%) (MEK1/2) |
| --- | --- | --- |
| 2.1% | O=C(O)c1ccc(F)c(F)c1Nc1ccccc1 [SC-1-175] | 64.4% |
| 0.28% | N#CC(=C(/N)Sc1ccccc1N)/C(C#N)=C(\N)Sc1ccccc1N [U0126, reference compound] | 99.72% |
